Experimental data published in US11180484B2, “Pyrazole derivatives as plasma kallikrein inhibitors” (KALVISTA PHARMACEUTICALS LIMITED, priority 2016, dated 2021).
≈ marks a conversion by molar mass, not a printed value. Where two headings read alike, the source gives them in different places.

Assays:
trypsin = test: Determination of enzyme selectivity: trypsin; format: biochemical, human; details: substrate at Km concentration
Procedure: (§3) Human serine protease enzymes plasmin, thrombin and trypsin were assayed for enzymatic activity using an appropriate fluorogenic substrate. Protease activity was measured by monitoring the accumulation of liberated fluorescence from the substrate over 5 minutes. The linear rate of fluorescence increase per minute was expressed as percentage (%) activity. The Km for the cleavage of each substrate was determined by standard transformation of the Michaelis-Menten equation.

[1] = In vitro permeability, Caco-2 model for oral absorption; format: in vitro ADME; details: human, apical to basolateral, 50 μM test compound, 37° C.
How it was run: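 Caco-2 monolayers grown on collagen inserts for 3 days, with 50 μM compound added apically and incubated 1 hour at 37° C with shaking. Apical-to-basolateral transport measured by LCMS in both compartments. Monolayer integrity checked by TEER before and after, and by Lucifer Yellow flux.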

plasmin = plasmin (Homo sapiens (Human), UniProt P00747); test: Determination of enzyme selectivity: plasmin; format: biochemical; details: substrate at Km concentration
Procedure: as §3

Human Factor XIIa = Human Factor XIIa (Homo sapiens (Human), UniProt P00748); test: Factor XIIa inhibitory activity in vitro; format: biochemical; details: 25° C., substrate H-DPro-Phe-Arg-AFC; read-out: IC50 (human FXIIa)
Procedure: (§1) Human Factor XIIa (Enzyme Research Laboratories) was incubated at 25° C. with the fluorogenic substrate H-DPro-Phe-Arg-AFC and various concentrations of the test compound. Residual enzyme activity (initial rate of reaction) was determined by measuring the change in […] at 410 nm and the IC50 value for the test compound was determined.

Human plasma kallikrein = Human plasma kallikrein (Homo sapiens (Human), UniProt P03952); test: Determination of the IC50 for plasma kallikrein; format: biochemical; details: 25° C., substrate H-DPro-Phe-Arg-AFC; read-out: IC50 (human PKal)
Procedure: as §1, with “plasma kallikrein (Protogen)” for “Factor XIIa (Enzyme Research Laboratories)”

Human KLK1 = Human KLK1 (Homo sapiens (Human), UniProt P06870); test: Determination of the IC50 for KLK1; format: biochemical; details: 25° C., substrate H-DVal-Leu-Arg-AFC
Procedure: as §1, with “KLK1 (Callbiochem)” for “Factor XIIa (Enzyme Research Laboratories)”, “H-DVal-Leu-Arg-AFC” for “H-DPro-Phe-Arg-AFC”

[2] = Plasma protein binding (PPB), rapid equilibrium dialysis, human plasma; format: in vitro ADME; details: 5 μM test compound, dialysis 5 hrs at 37° C.
Human FXIa = Human FXIa (Homo sapiens (Human), UniProt P03951); test: Determination of the % inhibition / IC50 for FXIa; format: biochemical; details: for inhibition at 40 µM: 40 μM test compound, read-out: % Inhibition @ 40 μM (human FXIa); for IC50: 25° C., substrate Z-Gly-Pro-Arg-AFC
Procedure: FXIa inhibitory activity in vitro was determined using standard published methods (see e.g. Johansen et al., Int. J. Tiss. Reac. 1986, 8, 185; Shori et al., Biochem. Pharmacol., 1992, 43, 1209; Sturzebecher et al., Biol. Chem. Hoppe-Seyler, 1992, 373, 1025). […]

[3] = Pharmacokinetics following a single oral dose in male Sprague-Dawley rats; format: in vivo; details: rat, single po dose (nominal 10 mg/kg; actual dose per row in column Dose po), 10% DMSO/10% cremophor/80% SWFI, plasma
Procedure: Pharmacokinetic studies of the compounds in Table 13 were performed to assess the pharmacokinetics following a single oral dose in male Sprague-Dawley rats. Two rats were given a single po dose of 5 mL/kg of a nominal 2 mg/mL (10 mg/kg) composition of test compound in vehicle. Following dosing, blood samples were collected over a period of 24 hours. Sample times were 5, 15 and 30 minutes then 1, 2, 4, 6, 8 and 12 hours. Following collection, blood samples were centrifuged and the plasma fraction analysed for concentration of test compound by LCMS.

[4] = Predicted plasma clearance (Clp), well-stirred model, rat; format: in vitro ADME; details: percentage of hepatic blood flow
[5] = Intrinsic clearance in rat liver microsomes; format: in vitro ADME; details: rat liver microsomes 0.5 mg/mL, 5 μM test compound, 37° C.; read-out: rat liver microsome (Clint μL/min/mg protein)
Procedure: (§2) Rat or human liver microsomes (0.5 mg/mL; Corning) were incubated with 5 μM test compound at 37° C. on a shaking platform (150 rpm). Samples were taken at 0, 6, 12, 18, 24 and 60 min and test compound concentrations were determined by LCMS against a calibration curve.

[6] = Intrinsic clearance in human liver microsomes; format: in vitro ADME; details: human liver microsomes 0.5 mg/mL, 5 μM test compound, 37° C.; read-out: Human liver microsome (Clint μL/min/mg protein)
Procedure: as §2

thrombin = thrombin (Homo sapiens (Human), UniProt P00734); test: Determination of enzyme selectivity: thrombin; format: biochemical; details: substrate at Km concentration
Procedure: as §3

[7] = Predicted plasma clearance (Clp), well-stirred model, human; format: in vitro ADME; details: percentage of hepatic blood flow
[8] = Plasma protein binding (PPB), rapid equilibrium dialysis, rat plasma; format: in vitro ADME; details: 5 μM test compound, dialysis 5 hrs at 37° C.
[9] = Solubility in water and 0.1N HCl (aq); format: physicochemical; details: thermodynamic from solid, incubated at 1 mg/mL, 37° C.
Procedure: Solubility was determined in water and 0.1N HCl (aq). Test compounds were incubated at 1 mg/mL for 24 hrs at 37° C. on a shaking platform (500 rpm). Samples were taken at 1, 4 and 24 hrs and centrifuged at 15,000 g for 10 min. Test compound concentration in the supernatant was determined by LCMS against a standard curve.

Human FXIa, sequence (P03951 388-625): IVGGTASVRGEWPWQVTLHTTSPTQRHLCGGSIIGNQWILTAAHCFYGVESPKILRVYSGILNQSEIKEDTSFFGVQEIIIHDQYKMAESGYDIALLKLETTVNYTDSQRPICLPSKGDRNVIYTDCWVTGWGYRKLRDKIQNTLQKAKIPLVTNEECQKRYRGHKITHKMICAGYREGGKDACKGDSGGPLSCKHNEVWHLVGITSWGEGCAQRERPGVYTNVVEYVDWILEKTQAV
Human FXIa, sequence (P03951 19-387): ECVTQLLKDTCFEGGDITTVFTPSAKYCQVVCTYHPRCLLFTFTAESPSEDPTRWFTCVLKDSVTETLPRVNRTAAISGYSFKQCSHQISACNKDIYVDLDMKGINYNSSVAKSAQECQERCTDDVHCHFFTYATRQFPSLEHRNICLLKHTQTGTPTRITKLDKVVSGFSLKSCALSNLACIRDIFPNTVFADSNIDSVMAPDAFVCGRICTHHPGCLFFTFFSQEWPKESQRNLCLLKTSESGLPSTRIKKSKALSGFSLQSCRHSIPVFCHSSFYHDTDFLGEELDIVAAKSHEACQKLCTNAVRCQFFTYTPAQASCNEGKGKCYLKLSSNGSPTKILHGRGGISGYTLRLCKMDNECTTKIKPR
Human KLK1, sequence (P06870 25-262): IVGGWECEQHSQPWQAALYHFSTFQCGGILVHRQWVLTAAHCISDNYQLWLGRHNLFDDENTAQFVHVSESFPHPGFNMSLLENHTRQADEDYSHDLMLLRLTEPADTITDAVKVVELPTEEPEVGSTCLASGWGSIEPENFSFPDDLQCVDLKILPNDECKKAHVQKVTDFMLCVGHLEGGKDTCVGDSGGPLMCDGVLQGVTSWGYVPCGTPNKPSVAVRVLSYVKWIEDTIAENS
Human plasma kallikrein, sequence (P03952 391-638): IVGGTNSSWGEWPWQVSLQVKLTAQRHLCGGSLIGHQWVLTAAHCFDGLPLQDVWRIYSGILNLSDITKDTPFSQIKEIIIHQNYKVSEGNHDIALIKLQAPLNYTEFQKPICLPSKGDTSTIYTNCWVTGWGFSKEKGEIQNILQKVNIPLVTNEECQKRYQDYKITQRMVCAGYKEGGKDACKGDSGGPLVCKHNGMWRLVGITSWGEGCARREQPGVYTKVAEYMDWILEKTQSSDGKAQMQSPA
Human plasma kallikrein, sequence (P03952 20-390): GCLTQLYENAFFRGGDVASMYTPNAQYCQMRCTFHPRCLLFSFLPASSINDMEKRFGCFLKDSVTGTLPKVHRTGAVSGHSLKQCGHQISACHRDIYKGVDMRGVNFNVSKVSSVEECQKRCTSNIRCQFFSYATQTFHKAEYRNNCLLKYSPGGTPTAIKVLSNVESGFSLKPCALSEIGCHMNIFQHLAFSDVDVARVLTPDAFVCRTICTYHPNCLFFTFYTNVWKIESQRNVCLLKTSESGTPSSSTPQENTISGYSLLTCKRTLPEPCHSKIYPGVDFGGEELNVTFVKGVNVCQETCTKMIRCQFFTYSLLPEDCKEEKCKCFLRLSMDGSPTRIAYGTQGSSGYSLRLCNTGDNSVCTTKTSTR
Human Factor XIIa, sequence (P00748 373-615): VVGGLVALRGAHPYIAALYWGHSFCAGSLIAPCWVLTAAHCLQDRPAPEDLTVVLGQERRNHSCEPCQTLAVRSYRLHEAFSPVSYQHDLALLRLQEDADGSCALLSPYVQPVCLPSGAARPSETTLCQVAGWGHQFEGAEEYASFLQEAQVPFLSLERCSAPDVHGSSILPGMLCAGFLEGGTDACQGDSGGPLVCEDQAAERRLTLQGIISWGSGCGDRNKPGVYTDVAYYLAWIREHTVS
plasmin, sequence (P00747 581-810): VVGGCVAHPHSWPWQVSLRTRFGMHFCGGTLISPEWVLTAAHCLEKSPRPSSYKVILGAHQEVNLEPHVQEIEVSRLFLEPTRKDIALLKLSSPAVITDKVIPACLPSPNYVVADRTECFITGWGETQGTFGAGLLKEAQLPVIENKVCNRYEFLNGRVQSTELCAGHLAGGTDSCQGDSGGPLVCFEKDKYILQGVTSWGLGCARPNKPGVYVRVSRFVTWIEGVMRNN
plasmin, sequence (P00747 97-580): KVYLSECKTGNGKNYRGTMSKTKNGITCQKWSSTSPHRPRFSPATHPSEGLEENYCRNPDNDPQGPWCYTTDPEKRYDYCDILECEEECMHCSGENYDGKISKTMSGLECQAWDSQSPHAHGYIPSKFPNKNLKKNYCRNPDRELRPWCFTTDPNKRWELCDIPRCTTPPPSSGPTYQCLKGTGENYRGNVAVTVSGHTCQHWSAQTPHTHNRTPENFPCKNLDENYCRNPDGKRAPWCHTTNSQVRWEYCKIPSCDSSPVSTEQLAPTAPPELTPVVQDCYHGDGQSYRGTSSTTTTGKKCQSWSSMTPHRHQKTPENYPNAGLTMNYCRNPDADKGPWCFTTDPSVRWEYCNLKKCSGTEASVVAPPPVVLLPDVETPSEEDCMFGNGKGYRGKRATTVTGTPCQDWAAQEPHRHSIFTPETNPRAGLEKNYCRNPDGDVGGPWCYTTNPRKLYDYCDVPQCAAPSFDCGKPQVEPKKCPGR

Row | Compound | IC50 (trypsin) [µM] | Papp at 1 h, 50 μM [1] [×10⁻⁶ cm/s] | IC50 (plasmin) [µM] | IC50 (Human Factor XIIa) [µM] | IC50 (Human plasma kallikrein) [nM] | IC50 (Human KLK1) [µM] | fraction unbound at 5 h, 5 μM [2] | inhibition at 40 µM (Human FXIa) [%] | IC50 (Human FXIa) [µM] | Cmax [3] [ng/mL] | Tmax [3] [min] | Predicted in vivo rat Clp (% LBF) [4] [% LBF] | microsomal CLint at 5 μM [5] [µL/min/mg] | microsomal CLint at 5 μM [6] [µL/min/mg] | IC50 (thrombin) [µM] | Predicted in vivo human Clp (% LBF) [7] [% LBF] | fraction unbound at 5 h, 5 μM [8] | solubility ([9]; simulated gastric fluid, 0.1N HCl (aq), read-out: Solubility 0.1N HCl (aq)) [µg/mL] | solubility ([9]; water, read-out: Solubility Water) [µg/mL]
1 | COc1ccnc(CNC(=O)c2cn(Cc3ccc(Cn4ccccc4=O)cc3)nc2C(F)(F)F)c1F [Example 6, N-[(3-fluoro-4-methoxypyridin-2-yl)methyl]-1-({4-[(2-oxopyridin-1-yl)methyl]phenyl}methyl)-3-(trifluoromethyl)pyrazole-4-carboxamide] | > 40 | 17 | > 40 | > 4 | 3.2 | > 4 | 0.13 | 2 | > 40 | 1800 | 30 | 6 | 30 | 42 | > 40 | 24 | 0.05 |  | 
2 | COCc1nn(Cc2ccc(Cn3cc(F)ccc3=O)cc2)cc1C(=O)NCc1nccc(OC)c1F [Example 30, 1-({4-[(5-fluoro-2-oxopyridin-1-yl)methyl]phenyl}methyl)-N-[(3-fluoro-4-methoxypyridin-2-yl)methyl]-3-(methoxymethyl)pyrazole-4-carboxamide] | > 40 | 24 | > 40 | > 40 | 6.7 | > 40 | 0.18 | 7 | > 40 | 756 | 38 | 1 | 22 | 20 | > 40 | 12 | 0.03 | 940 (≈ 1840 µM) | 290 (≈ 569 µM)
